Test results reported in article PMC11013010, “Serendipitous Identification of Azine Anticancer Agents Using a Privileged Scaffold Morphing Strategy” (Molecules, 2024).
In brackets after ≈: the same amount, converted by molar mass. Several values for one entry are separate records, joined by “and”; a condition that tells them apart may be missing. Equal entries are not always repeated.

Legend:
Caco-2 cells = experiment: Cytotoxicity assay (CellTiter Glo) on colon epithelial carcinoma cells; settings: ratio CC50 FB789 / CC50 Caco-2
[1] = as above; settings: human, Caco-2
H9 cells = experiment: Cytotoxicity assay (CellTiter Glo) on lymphoma cells; settings: ratio CC50 FB789 / CC50 H9
[2] = as above; settings: human
Huh7 cells = experiment: Cytotoxicity assay (CellTiter Glo) on hepatocarcinoma cells; type: cell-based; settings: ratio CC50 FB789 / CC50 Huh7
Procedure: (§1) Cell-based assays were carried out on the normal human fibroblast FB789 cell line (kindly provided by Elena Dell’Ambra from IRCCS Istituto Dermopatico dell’Immacolata, Rome), on the Huh7 hepatocarcinoma cell line (kindly provided by Istituto Toscano Tumori, Core Research Laboratory, Siena, Italy), on the Caco-2 adenocarcinoma colorectal cell line (ATCC catalog. n. HTB-37), on the suspension H9 cell line (repository code ARP0001, NIBSC Centre for AIDS reagents) and on the adherent TZM-bl cell line (repository code ARP5011, NIBSC Centre for AIDS reagents).
(§2) High glucose Dulbecco’s Modified Eagle Medium with sodium pyruvate and L-glutamine (DMEM; Euroclone) was used to grow Huh-7 and TZM-bl. Minimum Essential Eagle Medium (EMEM; Euroclone) was used to propagate Caco-2. DMEM and EMEM were supplemented with 10% fetal bovine serum (FBS; Euroclone) and 1% penicillin/streptomycin (Pen/Strep, Euroclone). The growth medium with a lower concentration of FBS (1%) was used for viral propagation, cytotoxic and antiviral experiments in adherent cell lines. […] All cell lines were grown at 37 °C in a 5% CO2 atmosphere in a humidified incubator.
(§3) The cytotoxicity of all investigated compounds was assayed in all cells lines as previously described. Briefly, confluent cells were treated with decreasing compound concentrations for 48h. The final DMSO concentration used was never greater than 0.5% v/v. Each experiment was performed in duplicate and repeated in two independent experiments. Cell viability was calculated using the CellTiter Glo 2.0 kit (Promega, Madison, WI, USA) and luminescence values signal obtained from cells treated with serial dilution of the compounds were measured through the GloMax® Discover Multi mode Microplate Reader (Promega) and elaborated with GraphPad PRISM software version 9.0 (La Jolla, San Diego, CA, USA). […] A non-toxic dose of each compound was used as the starting concentration in the antiviral activity assay.

[3] = as above; type: cell-based; settings: human, Huh7 hepatocarcinoma cells, Huh7 hepatocarcinoma
Procedure: as §1, §2, §3

[4] = Cytotoxicity assay (CellTiter Glo) on normal fibroblasts; type: cell-based, human; settings: human, FB789 normal fibroblast cells
Procedure: as §1
(§4) The FB789 was cultured in Dulbecco’s Modified Eagle Medium (DMEM) and Ham’s F10 in a ratio of 50%, supplemented with 10% FBS, 2 mM L-glutamine, and 10,000 unit/mL penicillin/streptomycin.
as §3

SARS-CoV-2 = test system: SARS-CoV-2; parameters: method as in PMID 36557962; settings: half-maximal concentration inhibiting 50% of virus replication; cited from earlier work
DENV = DENV antiviral yield reduction assay in Huh7; settings: read-out: potency on DENV; flavivirus DENV
WNV = WNV antiviral yield reduction assay in Huh7; settings: read-out: potency on WNV; flavivirus WNV
[5] = Metabolic stability assay with human liver microsomes; type: in vitro ADME; settings: 1 h, 37 °C, 50 µM
Procedure: A DMSO solution of selected compounds was incubated in the presence of phosphate buffer (25 mM, pH 7.4), human liver microsomal protein (200 µg/mL), and an NADPH regenerating system in MgCl2 (48 mM) at a final concentration of 50 µM. The metabolic reactions were conducted for 1 h under shaking at 37 °C and then stopped by adding cold acetonitrile (ACN). Centrifuging the mixtures at 5000 rpm, the supernatant was separated, dried under nitrogen flow, and finally suspended in methanol (MeOH). The amount of the parent drug and the metabolites were determined as previously described.

[6] = Kinetic aqueous solubility; type: physicochemical; settings: Milli-Q water, 25 °C, kinetic from dmso stock; for solubility kinetic at 3 h: water, Mill-Q H2O, RT, LOD 0.1 µg/mL
Procedure: For the quantitative analysis, a UV/LC-MS system was used. LC analysis was performed through an Agilent 1260 Infinity HPLC-DAD system (Agilent Technologies, Palo Alto, CA, USA), which constituted of a vacuum solvent degassing unit, a binary high-pressure gradient pump, and a UV detector, that was connected to an Agilent MSD 6130 system (Agilent Technologies, Palo Alto, CA, USA). The Agilent 1260 series mass spectra detection (MSD) single-quadrupole instrument was equipped with the orthogonal spray API-ES (Agilent Technologies, Palo Alto, CA, USA). Nitrogen was used as a nebulizing and drying gas. Chromatographic separation was performed using a Phenomenex Kinetex EVO C18-100 Å (150 × 4.6 mm, 5 μm particle size) at 25 °C and a gradient elution with a binary solution; eluent A was H2O, while eluent B consisted of ACN (both eluents were acidified with FA 0.1% v/v). […] UV detection was monitored at 254 nm. Spectra were acquired over the scan range m/z 100–1500 in positive mode.
DMSO-stock compounds’ solutions were diluted with Mill-Q H2O to a final concentration of 200 μM. The percentage of DMSO never exceeded 2% v/v. Samples were incubated under gentle shaking at 25 °C (RT) conditions for 3 h. The suspensions were filtered using a 0.45 µm nylon filter (Acrodisc, VWR, Radnor, PE, USA), and the amount of solubilized compound was determined with the HPLC-UV-MS method reported above. The quantification of the solubilized compound was made with the appropriate calibration curve realized with stock solutions in DMSO (0.1–100 µg/mL). The limit of detection (LOD) was quantified at 0.1 µg/mL.

FB789 cells = experiment: Cytotoxicity assay (CellTiter Glo) on normal fibroblasts; type: cell-based, human; settings: pyrimidines and pyridines, read out at 48 h, mean ± SD
Procedure: as §1, §4, §3

[7] = Parallel artificial membrane permeability assay (PAMPA); type: in vitro ADME; settings: GI, pH 7.4, 5 h, RT
Procedure: To evaluate the apparent permeability of tested compounds, a DMSO stock solution [1 mM] of each derivative was prepared and then diluted 1:1 v/v with phosphate buffer (PBS 25 mM, pH 7.4) in order to make the donor solutions. According to the protocol already published, the gastrointestinal (GI) phospholipidic bilayer was mimed through adding a 1% w/v dodecane solution of phosphatidylcholine (PC). The sandwich plates were assembled and incubated for 5 h at RT. At the end time point, the amount of compound passed through the phospholipid bilayer was measured using HPLC-UV/MS. Finally, apparent permeability (Papp) and membrane retention (MR%) were calculated as previously described.

Plasma stability assay = type: in vitro ADME; settings: human plasma, 24 h, 37 °C; % of Time 0
Procedure: A DMSO solution of each compound was incubated at a final concentration of 100 µM at 37 °C under shaking with HEPES buffer (25 mM, 140 mM NaCl, pH 7.4) and human plasma. At time 0 and after 24 h, samples were collected from the reaction mixtures and treated with cold ACN. After centrifugation at 5000 rpm for 10 min, the supernatant was collected, and the amount of unmodified compound was determined using the HLPC-UV/MS method described above. Modified compounds were calculated using time zero as 100% of the unmodified compound.

[8] = triazines 1-9, read-out 48 h, Cell-Titer Glo
[9] = pyrimidines and pyridines, read out at 48 h, mean ± SD

**Q.** With `Oc1ccccc1/C=N/Nc1nc(N2CCOCC2)nc(N2CCOCC2)n1` [Compound 1] as the compound, how does the “TSI Caco-2” value (Caco-2 cells; triazines 1-9) read?
**A.** <0.1

**Q.** And the CC50 at 48 h [1]?
**A.** > 400 µM

**Q.** What about the “TSI H9” value (H9 cells; triazines 1-9) of the same compound?
**A.** <0.3

**Q.** What about the CC50 at 48 h [2] of the same compound?
**A.** > 100 µM

**Q.** And the “TSI Huh7” value (Huh7 cells; triazines 1-9)?
**A.** <0.3

**Q.** What about the CC50 at 48 h ([3]; triazines 1-9, read-out 48 h) of the same compound?
**A.** > 100 µM

**Q.** What about the CC50 at 48 h [4, 8] of the same compound?
**A.** 30 ± 6 µM

**Q.** And the IC50 (SARS-CoV-2)?
**A.** 12.1 µM

**Q.** What does the source list for `Oc1ccccc1/C=N/Nc1nc(Nc2ccc(F)cc2)nc(N2CCOCC2)n1` [Compound 4]?
**A.** TSI Caco-2 (Caco-2 cells; triazines 1-9): 3.7; CC50 at 48 h [1]: 3 ± 1 µM; IC50 (DENV): 2 µM; IC50 (WNV): 1.1 µM; TSI H9 (H9 cells; triazines 1-9): 5.5; CC50 at 48 h [2]: 2 ± 1 µM; TSI Huh7 (Huh7 cells; triazines 1-9): 1.2; CC50 at 48 h ([3]; triazines 1-9, read-out 48 h): 9 ± 1 µM; CC50 at 48 h [4, 8]: 11 ± 3 µM

**Q.** Which “TSI Caco-2” value (Caco-2 cells; pyrimidines and pyridines) does the source give for `Cc1cccc(/C=N/Nc2cc(Nc3ccc(F)cc3)nc(Nc3ccc(F)cc3)c2)c1` [Compound 33b] here?
**A.** 35.5

**Q.** And the CC50 at 48 h [1]?
**A.** 11 ± 9 µM

**Q.** What about the “Metabolic Stability” value [5] of the same compound?
**A.** >99.9%

**Q.** What about the “TSI H9” value (H9 cells; pyrimidines and pyridines) of the same compound?
**A.** 17.0

**Q.** And the CC50 at 48 h [2]?
**A.** 23 ± 7 µM

**Q.** What about the solubility kinetic at 3 h [6] of the same compound?
**A.** < 0.1 µg/mL

**Q.** And the “TSI Huh7” value (Huh7 cells; pyrimidines and pyridines)?
**A.** 18.6

**Q.** What about the CC50 at 48 h [3, 9] of the same compound?
**A.** 21 ± 12 µM

**Q.** What about the “CC50 FB789” value (FB789 cells) of the same compound?
**A.** very low cytotoxic effect

**Q.** What about the CC50 at 48 h [4, 9] of the same compound?
**A.** 390 ± 30 µM

**Q.** And the “MR (membrane retention)” value [7]?
**A.** 46.84% and 46.84 ± 4.99%

**Q.** What about the Papp at 5 h, 0.5 mM [7] of the same compound?
**A.** 1.38 ± 0.6 ×10⁻⁶ cm/s

**Q.** What about the “Plasmatic Stability” value (Plasma stability assay) of the same compound?
**A.** 81.01 ± 3.28%

**Q.** What does the source list for `Cc1cccc(/C=N/Nc2cc(Nc3ccc(F)cc3)nc(N3CCOCC3)c2)c1` [Compound 38b]?
**A.** TSI Caco-2 (Caco-2 cells; pyrimidines and pyridines): 11.3; CC50 at 48 h [1]: 8 ± 3 µM; Metabolic Stability [5]: 97.93 ± 0.46%; TSI H9 (H9 cells; pyrimidines and pyridines): 5.0; CC50 at 48 h [2]: 18 ± 4 µM; solubility at 3 h ([6]; log of kinetic water solubility, read-out: LogS (converted)): 1.35 µM (≈ 0.547 µg/mL); solubility kinetic at 3 h [6]: 0.54 µg/mL (≈ 1.33 µM); TSI Huh7 (Huh7 cells; pyrimidines and pyridines): 10.0; CC50 at 48 h [3, 9]: 9 ± 6 µM; CC50 FB789 (FB789 cells): very low cytotoxic effect; CC50 at 48 h [4, 9]: 90 ± 9 µM; Papp at 5 h, 0.5 mM [7]: 6.35 ± 0.67 ×10⁻⁶ cm/s; Plasmatic Stability (Plasma stability assay): 87.13 ± 0.48%
